Source: PubChem BioAssay (NCI)
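At the GI50, growth is halved. Definition used: TGI = concentration required for complete inhibition of growth.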

Assays:
Assay in all cases: NCI tumour cell line growth inhibition, 384-well format
786-0 renal = tested on: 786-0 renal
A498 renal = tested on: A498 renal
A549 NSCLC = tested on: A549 NSCLC
ACHN renal = tested on: ACHN renal
BT-549 breast = tested on: BT-549 breast
CAKI-1 renal = tested on: CAKI-1 renal
CCRF-CEM leukemia = tested on: CCRF-CEM leukemia
COLO 205 colon = tested on: COLO 205 colon
DU-145 prostate = tested on: DU-145 prostate
EKVX NSCLC = tested on: EKVX NSCLC
HCC-2998 colon = tested on: HCC-2998 colon
HCT-116 colon = tested on: HCT-116 colon
HCT-15 colon = tested on: HCT-15 colon
HL-60(TB) leukemia = tested on: HL-60(TB) leukemia
HOP-62 NSCLC = tested on: HOP-62 NSCLC
HOP-92 NSCLC = tested on: HOP-92 NSCLC
HS 578T breast = tested on: HS 578T breast
HT29 colon = tested on: HT29 colon
IGROV1 ovarian = tested on: IGROV1 ovarian
KM12 colon = tested on: KM12 colon
LOX IMVI melanoma = tested on: LOX IMVI melanoma
M14 melanoma = tested on: M14 melanoma
MALME-3M melanoma = tested on: MALME-3M melanoma
MCF7 breast = tested on: MCF7 breast
MDA-MB-231 breast = tested on: MDA-MB-231 breast
MDA-MB-435 melanoma = tested on: MDA-MB-435 melanoma
MDA-MB-468 breast = tested on: MDA-MB-468 breast
MOLT-4 leukemia = tested on: MOLT-4 leukemia
NCI-H226 lung = tested on: NCI-H226 lung
NCI-H23 lung = tested on: NCI-H23 lung
NCI-H322M lung = tested on: NCI-H322M lung
NCI-H460 NSCLC = tested on: NCI-H460 NSCLC
NCI-H522 lung = tested on: NCI-H522 lung
NCI/ADR-RES ovarian = tested on: NCI/ADR-RES ovarian
OVCAR-3 ovarian = tested on: OVCAR-3 ovarian
OVCAR-4 ovarian = tested on: OVCAR-4 ovarian
OVCAR-5 ovarian = tested on: OVCAR-5 ovarian
OVCAR-8 ovarian = tested on: OVCAR-8 ovarian
PC-3 prostate = tested on: PC-3 prostate
RPMI-8226 leukemia = tested on: RPMI-8226 leukemia
RXF 393 renal = tested on: RXF 393 renal
SF-268 CNS = tested on: SF-268 CNS
SF-295 CNS = tested on: SF-295 CNS
SF-539 CNS = tested on: SF-539 CNS
SK-MEL-28 melanoma = tested on: SK-MEL-28 melanoma
SK-MEL-5 melanoma = tested on: SK-MEL-5 melanoma
SK-OV-3 ovarian = tested on: SK-OV-3 ovarian
SN12C renal = tested on: SN12C renal
SNB-19 CNS = tested on: SNB-19 CNS
SNB-75 CNS = tested on: SNB-75 CNS
SR leukemia = tested on: SR leukemia
SW-620 colon = tested on: SW-620 colon
T-47D breast = tested on: T-47D breast
TK-10 renal = tested on: TK-10 renal
U251 glioblastoma = tested on: U251 glioblastoma
UACC-257 melanoma = tested on: UACC-257 melanoma
UACC-62 melanoma = tested on: UACC-62 melanoma
UO-31 renal = tested on: UO-31 renal

## Cn1cnc2c(F)c(Nc3ccc(Br)cc3F)c(C(=O)NOCCO)cc21
786-0 renal
  GI50: > 32.1 µM
  TGI: > 100 µM
A498 renal
  GI50: 16.9 µM
  TGI: > 100 µM
A549 NSCLC
  GI50: 0.553 µM
  TGI: > 100 µM
ACHN renal
  GI50: > 33.9 µM
  TGI: > 100 µM
BT-549 breast
  GI50: 15.7 µM
  TGI: > 100 µM
CAKI-1 renal
  TGI: > 100 µM
CCRF-CEM leukemia
  GI50: > 100 µM
  TGI: > 100 µM
COLO 205 colon
  GI50: < 0.0149 µM
  TGI: 0.322 µM
DU-145 prostate
  GI50: 31.8 µM
  TGI: > 100 µM
EKVX NSCLC
  GI50: 29.4 µM
  TGI: > 100 µM
HCC-2998 colon
  GI50: < 0.01 µM
  TGI: 0.733 µM
HCT-116 colon
  GI50: 0.498 µM
  TGI: 15.2 µM
HCT-15 colon
  GI50: > 44.7 µM
  TGI: > 100 µM
HL-60(TB) leukemia
  GI50: 0.0399 µM
  TGI: > 100 µM
HOP-62 NSCLC
  TGI: > 100 µM
HOP-92 NSCLC
  GI50: 1.38 µM
  TGI: 9.01 µM
HS 578T breast
  TGI: > 88.2 µM
HT29 colon
  GI50: 0.0524 µM
  TGI: > 100 µM
IGROV1 ovarian
  GI50: 1.55 µM
  TGI: > 100 µM
KM12 colon
  GI50: 0.419 µM
  TGI: > 100 µM
LOX IMVI melanoma
  GI50: 1.25 µM
  TGI: 18.7 µM
M14 melanoma
  GI50: < 0.0121 µM
  TGI: 0.161 µM
MALME-3M melanoma
  GI50: < 0.01 µM
  TGI: 0.0159 µM
MCF7 breast
  GI50: > 100 µM
  TGI: > 100 µM
MDA-MB-231 breast
  GI50: 0.422 µM
  TGI: 8.26 µM
MDA-MB-435 melanoma
  GI50: 0.1 µM
  TGI: > 100 µM
MDA-MB-468 breast
  GI50: > 100 µM
  TGI: > 100 µM
MOLT-4 leukemia
  GI50: > 100 µM
  TGI: > 100 µM
NCI-H226 lung
  GI50: 0.405 µM
  TGI: > 31.9 µM
NCI-H23 lung
  GI50: 0.325 µM
  TGI: 17.8 µM
NCI-H322M lung
  GI50: 1.96 µM
  TGI: > 57.7 µM
NCI-H460 NSCLC
  GI50: > 100 µM
  TGI: > 100 µM
NCI-H522 lung
  GI50: > 45.4 µM
  TGI: > 100 µM
NCI/ADR-RES ovarian
  GI50: 93.9 µM
  TGI: > 100 µM
OVCAR-3 ovarian
  GI50: > 100 µM
  TGI: > 100 µM
OVCAR-4 ovarian
  GI50: 17.9 µM
  TGI: > 100 µM
OVCAR-5 ovarian
  GI50: 0.922 µM
  TGI: > 100 µM
OVCAR-8 ovarian
  GI50: > 67.4 µM
  TGI: > 100 µM
PC-3 prostate
  GI50: > 100 µM
  TGI: > 100 µM
RPMI-8226 leukemia
  GI50: > 56 µM
  TGI: > 100 µM
RXF 393 renal
  TGI: > 21 µM
SF-268 CNS
  GI50: > 100 µM
  TGI: > 100 µM
SF-295 CNS
  GI50: > 100 µM
  TGI: > 100 µM
SF-539 CNS
  GI50: 21.9 µM
  TGI: > 90.9 µM
SK-MEL-28 melanoma
  GI50: < 0.0143 µM
  TGI: 0.162 µM
SK-MEL-5 melanoma
  GI50: 0.0317 µM
SK-OV-3 ovarian
  GI50: > 100 µM
  TGI: > 100 µM
SN12C renal
  GI50: 12.5 µM
  TGI: > 100 µM
SNB-19 CNS
  GI50: > 100 µM
  TGI: > 100 µM
SNB-75 CNS
  TGI: > 75.8 µM
SR leukemia
  GI50: 24.7 µM
  TGI: > 100 µM
SW-620 colon
  GI50: 0.0211 µM
  TGI: > 100 µM
T-47D breast
  GI50: > 100 µM
  TGI: > 100 µM
TK-10 renal
  GI50: 38.3 µM
  TGI: > 100 µM
U251 glioblastoma
  GI50: 12.4 µM
  TGI: > 100 µM
UACC-257 melanoma
  GI50: 0.0333 µM
  TGI: 0.241 µM
UACC-62 melanoma
  GI50: 0.0203 µM
  TGI: 1.2 µM
UO-31 renal
  GI50: 4.96 µM
  TGI: > 45.9 µM
